Reference: patent publication US20230059705A1, “NITRIFICATION INHIBITOR FUNGICIDE COMPOSITION AND USE THEREOF” (Verdesian Life Sciences U.S., LLC, priority 2019, published 2023)
Like-named read-outs stand apart in the source and are kept apart here.

Columns and labels:
Nitrosomonas europaea = test: Inhibition of nitrite generation by N. europaea cell suspension (Griess reagent, absorbance 548 nm); assay type: cell-based; settings: thiram 4 μM, relative to zero inhibitor control, read-out: % control (percent control of nitrification inhibition), observed
Description: 1.5 L of cell culture suspension containing Nitrosomonas europaea (N. europaea) bacteria (ATCC #19718) was resuspended into a phosphate buffer (0.1M NaPB, 2 mM Mg SO4, pH of 7.5). The amount of N. europaea protein was quantified using a Biuret assay. A sample of the cell culture suspension containing about 0.3 mg/mL, 0.25 mg/mL, or 0.5 mg/mL of N. europaea protein was incubated with 50 μL of (NH4)2SO4 in a total reaction volume of 5 mL. The test measured inhibition for treatment rates of 4 μM thiram, 100 μM nitrapyrin, 100 μM of formulation 2 (form.2), formulation 3 (form.3), formulation 4 (form.4) and 100 μM of formulation 2 (form.2) plus 4 μM thiram, 100 μM of formulation 3 (form.3) plus 4 μM thiram and 100 μM of formulation 4 (form.4) plus 4 μM thiram; an untreated N. europaea assay served as the control. At time points 0, 30, and 60 minutes post addition of (NH4)2SO4, an aliquot of 500 μL was removed from the reaction mixture and was incubated for 30 minutes with 500 μL of Griess Reagent in the dark followed by measuring the absorbance at 548 nm for the presence or absence of nitrite. The percent of nitrification inhibition was calculated based on the relative percentage of nitrite measurement against the zero inhibitor control measurement (see FIGS. 2-4 showing the percent control of nitrification inhibition). […]

N. europaea = test: Oxygen (O2) uptake of N. europaea cell suspension; assay type: cell-based, Nitrosomonas europaea; settings: FIG. 12, cells at 0.5 mg/mL total protein, thiram 4 μM, nitrapyrin and formulations 100 μM
Description: 1.5 L of cell culture suspension containing N. europaea bacteria (ATCC #19718) was resuspended into a phosphate buffer (0.1M NaPB, 2 mM Mg SO4, pH of 7.5). The amount of N. europaea protein was quantified using a Biuret assay.
To a buffer solution containing 10 μM of (NH4)2SO4 in a total reaction volume of 5 mL was added 0.25 mg/mL of the N. europaea containing cell suspension. The N. europaea protein content varied (e.g., 0.25 mg/mL, 0.3 mg/mL or 0.5 mg/mL total protein). Measurements of O2 present in the reaction medium were taken immediately after the addition of the cell suspension to the buffer solution for and were taken continuously over a certain time period.
Test compounds and formulations included 4 μM thiram, 100 μM nitrapyrin, 100 μM of formulation 2, 100 μM of formulation 3, 100 μM of formulation 4, 100 μM of formulation 2 plus 4 μM thiram, 100 μM of formulation 3 plus 4 μM thiram; and 100 μM of formulation 4 plus 4 μM, and thiram, untreated N. europaea assay served as the control.
Results are typically plotted as a function of measured oxygen (i.e., the amount of dissolved oxygen) in solution over time to generate a inhibition curve (FIG. 11). Measurements of the area under the inhibition curve can provide a bar chart showing the oxygen consumption of N. europaea of the entire testing period.

Structure (SMILES) | inhibition at 4 µM (Nitrosomonas europaea; 0.5 h, 30 min after (NH4)2SO4, formulation 100 μM) [%] | inhibition at 4 µM (Nitrosomonas europaea; 1 h, 60 min after (NH4)2SO4, formulation 100 μM) [%] | inhibition at 4 µM (N. europaea; Nitrosomonas europaea, read-out: inhibition of oxygen consumption by N. europaea) [%] | inhibition of oxygen consumption by N. europaea (N. europaea)
CN(C)C(=S)SSC(=S)N(C)C [Thiram] | 77.7 ± 1 | 77.3 ± 1.2 | 20 | –
Clc1cccc(C(Cl)(Cl)Cl)n1 [nitrapyrin, 2-chloro-6-(trichloromethyl)-pyridine] | – | – | – | did not inhibit
